Data on 11 compounds can be found in patent US12122761B2, “2-azaspiro[3.4]octane derivatives as M4 agonists” (NOVARTIS AG, priority 2019, dated 2024).

pEC50: −log10 of the molar value.

Experiment [1] concerns the target T1, human cloned CHRM4 receptor (M4_CHO cells) (Homo sapiens, UniProt P08173).
T1 construct: expressed in transfected cells; host or cells: CHO-K1
T1 sequence (P08173 1-479): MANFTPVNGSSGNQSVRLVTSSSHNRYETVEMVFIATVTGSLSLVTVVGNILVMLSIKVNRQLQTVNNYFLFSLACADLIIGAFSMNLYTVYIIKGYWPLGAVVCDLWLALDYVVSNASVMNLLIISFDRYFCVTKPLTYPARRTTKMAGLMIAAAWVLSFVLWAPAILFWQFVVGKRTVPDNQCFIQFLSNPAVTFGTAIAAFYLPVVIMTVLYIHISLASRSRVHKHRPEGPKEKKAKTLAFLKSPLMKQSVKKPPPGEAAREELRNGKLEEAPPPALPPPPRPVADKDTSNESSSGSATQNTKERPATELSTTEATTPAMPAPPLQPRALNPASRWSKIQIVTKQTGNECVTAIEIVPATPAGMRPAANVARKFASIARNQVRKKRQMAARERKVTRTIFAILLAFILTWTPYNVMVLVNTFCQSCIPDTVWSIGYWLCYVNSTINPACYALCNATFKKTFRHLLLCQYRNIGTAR
Nature of the experiment: CHRM4 Ca++ Flux Assay (agonist mode, FDSS 7000EX). The format is cell-based. As to conditions: for Emax: Percent Activity, read-out: M4 FDSS PA; for pEC50: geometric mean if tested more than once, read-out: M4 FDSS EC50. In outline:
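Agonist-mode response was expressed as percent of the Carbachol EC100 and fitted with four-parameter nonlinear regression over an 11-point triplicate dose series. Intracellular Ca++ was tracked for 3 min by fluorescent dye in CHO-K1 cells stably expressing human CHRM4. Cells were preincubated 60 min with 20 μM ATP in buffer containing 2.5 mM probenecid.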

Experiment [2] has as its target T2, Cloned human M1 receptor (CHRM1) stably expressed in HEK293 cells (Homo sapiens, UniProt P11229).
T2 construct: expressed in transfected cells; host or cells: HEK293
T2 sequence (P11229 1-460): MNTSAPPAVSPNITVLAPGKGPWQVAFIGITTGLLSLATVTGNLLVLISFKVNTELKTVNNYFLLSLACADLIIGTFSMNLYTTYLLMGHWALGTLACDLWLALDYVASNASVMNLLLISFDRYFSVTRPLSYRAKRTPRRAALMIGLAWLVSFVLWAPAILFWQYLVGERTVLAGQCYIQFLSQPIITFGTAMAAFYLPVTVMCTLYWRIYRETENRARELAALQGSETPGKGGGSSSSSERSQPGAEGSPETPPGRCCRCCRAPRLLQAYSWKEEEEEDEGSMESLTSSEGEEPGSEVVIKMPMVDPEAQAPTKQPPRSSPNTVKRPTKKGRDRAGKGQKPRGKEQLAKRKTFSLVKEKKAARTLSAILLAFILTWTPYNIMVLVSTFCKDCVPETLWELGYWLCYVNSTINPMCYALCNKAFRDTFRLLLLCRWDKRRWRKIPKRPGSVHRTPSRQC
The experiment in a line: CHRM1 Ca++ Flux Assay (agonist mode, FDSS 7000EX). As to conditions: for Emax: HEK293, Percent Activity, read-out: M1 FDSS PA; for pEC50: geometric mean if tested more than once. The format is cell-based. In outline: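 Compounds tested as agonists at 11 concentrations in triplicate, with calcium traces captured over 3 minutes. Cells were HEK293 with stable human CHRM1 expression, plated overnight at 25K/well and loaded with calcium dye. Responses normalized to carbachol EC100 and fitted by four-parameter nonlinear regression.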

One may read the pEC50 as −log10 of the EC50, conventionally taken in molar units.

For `Fc1ccc(C2CCOC2)c(C2CCN([C@@H]3CCC4(C3)CN(c3nnco3)C4)CC2)c1` (mixture of isomers) [Example 2J, 2-((6R)-6-(4-(5-fluoro-2-(tetrahydrofuran-3-yl)phenyl)piperidin-1-yl)-2-azaspiro[3.4]octan-2-yl)-1,3,4-oxadiazole], the results for the Emax in experiment [1] and in experiment [2] were 92% and 97%, respectively. For the same compound, the values for the pEC50 in experiment [1] and in experiment [2] were 8.70 and 7.34, respectively.
The like results for `O=C(C1COC1)N1CC2(CC[C@H](N3CCC(c4ccccc4OC(F)(F)F)CC3)C2)C1` (single isomer, unassigned) [Example 8G] were, in that order, 24%, 0%, 6.56 and less than 4.60.
The matching figures for `O=C(N1CC2(CC[C@H](N3CCC(c4ccccc4C4CCOCC4)CC3)C2)C1)C1(F)CC1` (single isomer, unassigned) [Example 9M]: 35%, 0%, 7.00 and 5.19.
The like results for `c1ccc(C2CCN([C@H]3CCC4(C3)CN(c3nnco3)C4)CC2)c(C2CCOCC2)c1` (single isomer, unassigned) [Example 10T] were, in that order, 67%, 21%, 6.77 and 5.41.
As to `c1ccc(C2CCN([C@@H]3CCC4(C3)CN(c3nnco3)C4)CC2)c(OC2CC3(COC3)C2)c1` [Example 1A, (R)-2-(6-(4-(2-((2-oxaspiro[3.3]heptan-6-yl)oxy)phenyl)piperidin-1-yl)-2-azaspiro[3.4]octan-2-yl)-1,3,4-oxadiazole], the Emax in experiment [1] came out at 81%; in experiment [2], 63%. Besides, the pEC50 in experiment [1] is 9.00; in experiment [2], 6.63.
The like results for `c1ccc(C2CCN([C@@H]3CCC4(C3)CN(c3nnco3)C4)CC2)c(OC2COC2)c1` [Example 1D, (R)-2-(6-(4-(2-(oxetan-3-yloxy)phenyl)piperidin-1-yl)-2-azaspiro[3.4]octan-2-yl)-1,3,4-oxadiazole] were, in that order, 79%, 89%, 9.00 and 7.72.
The matching figures for `c1ccc(C2CCN([C@@H]3CCC4(C3)CN(c3nnco3)C4)CC2)c(OC[C@@H]2COCCO2)c1` [Example 1E, 2-((R)-6-(4-(2-(((S)-1,4-dioxan-2-yl)methoxy)phenyl)piperidin-1-yl)-2-azaspiro[3.4]octan-2-yl)-1,3,4-oxadiazole]: 72%, 85%, 9.00 and 7.24.
Turning to `CC(C)(O)CCOc1ccccc1C1CCN([C@@H]2CCC3(C2)CN(c2nnco2)C3)CC1` [Example 1F], in experiment [1], the Emax came out at 48% and the negative logarithm of the EC50 (pEC50) is 8.40. In experiment [2], the Emax was 79% and the pEC50 was 7.51.
The like results for `c1ccc(C2CCN([C@@H]3CCC4(C3)CN(c3nncs3)C4)CC2)c(OCC2COC2)c1` [Example 1G, (R)-2-(6-(4-(2-(oxetan-3-ylmethoxy)phenyl)piperidin-1-yl)-2-azaspiro[3.4]octan-2-yl)-1,3,4-thiadiazole] were, in that order, 82%, 9.00, 80% and 7.14.
In the case of `COc1ccc(F)cc1C1CCN([C@@H]2CCC3(C2)CN(C(=O)C2COC2)C3)CC1` [Example 6A, (R)-(6-(4-(5-fluoro-2-methoxyphenyl)piperidin-1-yl)-2-azaspiro[3.4]octan-2-yl)(oxetan-3-yl)methanone], in experiment [1], the negative-log EC50 (pEC50) is 9.00.
Still for that read-out and setting: with `CCOc1ccccc1C1CCN([C@@H]2CCC3(C2)CN(C(=O)C2COC2)C3)CC1` [Example 7J, (R)-(6-(4-(2-ethoxyphenyl)piperidin-1-yl)-2-azaspiro[3.4]octan-2-yl)(oxetan-3-yl)methanone] the figure was 8.22.
